Measurements as given in patent publication US20090312521A1 (priority 2004, published 2009).
Converted amounts (≈) assume the structure as drawn. “Also recorded” adds a separate entry of the source. Non-standard residues stand in square brackets, D forms with d. Residues, ends and D or L forms follow the SMILES beside them. βAla = NCCC(=O)O

Key:
[1] = system: Salmonella typhimurium Rb; conditions: murium Rb
[2] = system: Salmonella infantis
[3] = system: Salmonella typhimurium; conditions: murium
[4] = system: Salmonella enteritidis
[5] = system: Salmonella give
[6] = system: Salmonella montevideo
[7] = system: Erwinia chrysanthemi
[8] = system: Enterobacter aerogenes
[9] = system: Klebsiella pneumoniae
[10] = system: E. coli O157: H7
[11] = system: Shigella sonnei
[12] = system: Erwinia herbicola
[13] = system: Salmonella panama
[14] = system: Bacillus anthracis; type: cell-based; conditions: Gram +, BHI, 37 ° C.
[15] = system: Bacillus globigii; assay: Additional antimicrobial test (MIC); type: cell-based; conditions: Gram +, 37 ° C.
[16] = system: Yersinia pestis KIM5; type: cell-based; conditions: Yersinia pestis KIM5, Gram −, BHI, 22 ° C.
[17] = system: Yersinia pseudotuberculosis; type: cell-based; conditions: Gram −, BHI, 35 ° C.
[18] = system: Methicillinresistant Staphylococcus aureus (MRSA); assay: Additional antimicrobial test (MIC); type: cell-based; conditions: Gram +, NB, 37 ° C.
[19] = system: Bacillus thuringiensis; assay: Additional antimicrobial test (MIC); type: cell-based; conditions: Gram +, BHI, 37 ° C.
[20] = system: Salmonella typhimurium Re; conditions: Gram −, NB, 37 ° C.
[21] = system: E. coli ATCC 11775; type: cell-based; conditions: ATCC 11775, 24 h
Protocol: Lyophilized peptides were dissolved in NB to give a concentration of 400 μM and filtered using 0.22 μm filter discs (Millex GV, Durapore). An overnight culture in NB was adjusted to 5×10^6 CFU/mL and inoculated into the micro titer plate wells (10 μL) containing each 100 μL of a serial 2-fold dilution (200-0.4 μM) of the tested peptide in NB. Plates were incubated while gently shaking at 37 ° C. for 24 h. Next, 80 μL suspension of each well was transported into a flat-bottom 96-well plate (Costar). The absorbance was measured at 600 nm using a μQuant micro plate spectrophotometer (Bio-Tek Instruments). All peptides were measured in quadruplo. The peptide with sequence […] (see Otvos Jr, […]; Otvos, B. I.; Hoffmann, […].; Wade, […].; Bulet, P. Protein Sci. 2000, 9, 742) was used as negative control.

[22] = system: Vibrio cholerae; assay: Additional antimicrobial test (MIC); type: cell-based; conditions: Gram −, BHI, 37 ° C.
[23] = system: Salmonella typhimurium Rc; conditions: Gram −, NB, 37 ° C.
[24] = system: Salmonella typhimurium Rd1; conditions: Salmonella typhimurium Rd1, Gram −, NB, 37 ° C.
[25] = system: Pseudomonas auruginosa; assay: Additional antimicrobial test (MIC); type: cell-based
[26] = system: aminopeptidase and carboxypeptidase; assay: mammalian serum; conditions: up to four hour; cited from earlier work
[27] = mammalian serum; conditions: up to four hour period; cited from earlier work
[28] = system: Gram-negative bacteria; conditions: glycosylated form; cited from earlier work
[29] = cited from earlier work
[30] = aminopeptidase and carboxypeptidase cleavage; cited from earlier work

Row | Compound | MIC [1] [µM] | MIC [2] [µM] | MIC [3] [µM] | MIC [4] [µM] | MIC [5] [µM] | MIC [6] [µM] | MIC [9] [µM] | MIC [10] [µM] | MIC [11] [µM] | MIC [13] [µM] | MIC [14] | MIC [15] | MIC [16] | MIC [17] | MIC [18] | MIC [19] | MIC [20] [µM] | MIC [21] [µM] | MIC [22] | MIC [23] [µM] | other results
1 | CC[C@H](C)[C@H](NC(=O)[C@@H]1CCCN1C(=O)[C@H](CCCNC(=N)N)NC(=O)[C@@H]1CCCN1C(=O)[C@H](Cc1cnc[nH]1)NC(=O)[C@H](CO)NC(=O)[C@@H](NC(=O)[C@@H]1CCCN1C(=O)[C@H](CCCNC(=N)N)NC(=O)[C@@H]1CCCN1C(=O)[C@H](CO)NC(=O)[C@H](Cc1ccc(O)cc1)NC(=O)[C@@H]1CCCN1C(=O)[C@H](CCCNC(=N)N)NC(=O)[C@@H]1CCCN1C(=O)[C@H](CCCCN)NC(=O)CN)[C@@H](C)O)C(=O)N[C@@H](CCCNC(=N)N)C(=O)N[C@H](C(=O)O)C(C)C [Drosocin] (H-GKPRPYSPRPTSHPRPIRV-OH) | 50 (≈ 110 µg/mL) | 50 (≈ 110 µg/mL) | 25 (≈ 55 µg/mL) | 50 (≈ 110 µg/mL) | 25 (≈ 55 µg/mL) | 50 (≈ 110 µg/mL) | 100 (≈ 220 µg/mL) | 25 (≈ 55 µg/mL) | 100 (≈ 220 µg/mL) | 25 (≈ 55 µg/mL) |  |  |  |  |  |  |  |  |  |  | MIC [7]: 100 µM (≈ 220 µg/mL); MIC [8]: 100 µM (≈ 220 µg/mL); MIC [12]: 12.5 µM (≈ 27.5 µg/mL)
2 | CC[C@H](C)[C@H](NC(=O)[C@@H]1CCCN1C(=O)[C@H](CCCNC(=N)N)NC(=O)[C@@H]1CCCN1C(=O)[C@H](Cc1c[nH]cn1)NC(=O)[C@H](CO)NC(=O)[C@@H](NC(=O)[C@@H]1CCCN1C(=O)[C@H](CCCNC(=N)N)NC(=O)[C@@H]1CCCN1C(=O)[C@@H](NC(=O)[C@H](Cc1ccc(O)cc1)NC(=O)[C@@H]1CCCN1C(=O)[C@H](CCCNC(=N)N)NC(=O)[C@@H]1CCCN1C(=O)[C@H](CCCCN)NC(=O)CN)[C@@H](C)O)[C@@H](C)O)C(=O)N[C@@H](CCCNC(=N)N)C(=O)N[C@H](C(=O)O)C(C)C [Peptide 4, GKPRP YTPRP TSHPR PIRV] (H-GKPRPYTPRPTSHPRPIRV-OH; N-terminus assumed) | 12.5 (≈ 27.7 µg/mL) | 25 (≈ 55.3 µg/mL) | 12.5 (≈ 27.7 µg/mL) | 12.5 (≈ 27.7 µg/mL) | 25 (≈ 55.3 µg/mL) | 12.5 (≈ 27.7 µg/mL) | 100 (≈ 221 µg/mL) | 12.5 (≈ 27.7 µg/mL) | 100 (≈ 221 µg/mL) | 12.5 (≈ 27.7 µg/mL) | NI at ≦100 μM | NI at ≦100 μM | NI at ≦100 μM | NI at ≦100 μM | NI at ≦100 μM | NI at ≦100 μM | 3.38 (≈ 7.48 µg/mL) | 1.6 (≈ 3.54 µg/mL) | NI at ≦100 μM | 100 (≈ 221 µg/mL) | MIC [24]: 12.5 µM (≈ 27.7 µg/mL); MIC [25]: NI at ≦100 μM
3 | CC[C@H](C)[C@H](NC(=O)[C@@H]1CCCN1C(=O)[C@H](CCCNC(=N)N)NC(=O)[C@@H]1CCCN1C(=O)[C@H](Cc1c[nH]cn1)NC(=O)[C@H](CO)NC(=O)[C@@H](NC(=O)[C@@H]1CCCN1C(=O)[C@H](CCCNC(=N)N)NC(=O)[C@@H]1CCCN1C(=O)[C@@H](NC(=O)[C@H](Cc1ccc(O)cc1)NC(=O)[C@@H]1CCCN1C(=O)[C@H](CCCNC(=N)N)NC(=O)[C@@H]1CCCN1C(=O)[C@H](CCCCN)NC(=O)CCN)[C@@H](C)O)[C@@H](C)O)C(=O)N[C@@H](CCCNC(=N)N)C(=O)N[C@H](C(=O)O)C(C)C [Peptide 14, βAlaKPRP YTPRP TSHPR PIRV] (H-[βAla]KPRPYTPRPTSHPRPIRV-OH; N-terminus assumed) | 12.5 (≈ 27.8 µg/mL) | 25 (≈ 55.7 µg/mL) | 50 (≈ 111 µg/mL) | 12.5 (≈ 27.8 µg/mL) | 100 (≈ 223 µg/mL) | 12.5 (≈ 27.8 µg/mL) | 100 (≈ 223 µg/mL) | 25 (≈ 55.7 µg/mL) | 100 (≈ 223 µg/mL) | 25 (≈ 55.7 µg/mL) | NI at ≦100 μM | NI at ≦100 μM | NI at ≦100 μM | NI at ≦100 μM | NI at ≦100 μM | NI at ≦100 μM | 3.38 (≈ 7.53 µg/mL) | 3.1 (≈ 6.9 µg/mL) | NI at ≦100 μM | 100 (≈ 223 µg/mL) | MIC [24]: 12.5 µM (≈ 27.8 µg/mL); MIC [25]: NI at ≦100 μM
4 | Gly-Lys-Pro-Arg-Pro-Tyr-Ser*-Pro-Arg-Pro-Thr-Ser-His-Pro-Arg-Pro-Ile-Arg-Val |  |  |  |  |  |  |  |  |  |  |  |  |  |  |  |  |  |  |  |  | fragment found [26]: metabolites lacking five amino terminal residues; also recorded: metabolites lacking two carboxy terminal residues; fragment found [27]: metabolite lacking five amino terminal residues; also recorded: metabolite lacking two carboxy terminal residues
5 | Gly-Lys-Pro-Arg-Pro-Tyr-Ser*-Pro-Arg-Pro-Thr-Ser-His-Pro-Arg-Pro-Ile-Arg-Val [native, glycosylated peptide] |  |  |  |  |  |  |  |  |  |  |  |  |  |  |  |  |  |  |  |  | activity against Gram-negative bacteria [28]: moderately active; time needed to kill bacteria in vivo [28]: 24 h; antibacterial activity when injected into mice [29]: no antibacterial activity; degradation in mammalian serum [30]: completely degraded within a four hour period
